Test results: the NIST ThermoML archive (doi:10.1021/acs.jced.8b00591)

Experiment: xn = mol fraction of the nth substance listed
Settings: 101.3 kPa, Liquid; for viscosity: Falling or rolling sphere viscometry; for mass density: Vibrating tube method

CCn1cc[n+](C)c1.O=S(=O)([N-]S(=O)(=O)C(F)(F)F)C(F)(F)F + CCOC(=O)OCC
Settings | mass density [kg/m3] | viscosity [mPa·s]
288.15 K, x1 = 0.0991 | 1090.45 | 1.938
288.15 K, x1 = 0.1982 | 1179.3 | 3.368
288.15 K, x1 = 0.3024 | 1254.64 | 5.628
288.15 K, x1 = 0.3979 | 1312.21 | 8.533
288.15 K, x1 = 0.4982 | 1362.22 | 12.38
288.15 K, x1 = 0.5963 | 1404.91 | 17.23
288.15 K, x1 = 0.6992 | 1442.62 | 24.14
288.15 K, x1 = 0.7987 | 1475.05 | 31.13
288.15 K, x1 = 0.9 | 1503.75 | 39.07
288.15 K, x1 = 1 | 1528.55 | 49.41
293.15 K, x1 = 0.0991 | 1085.01 | 1.769
293.15 K, x1 = 0.1982 | 1173.95 | 3.032
293.15 K, x1 = 0.3024 | 1249.39 | 4.987
293.15 K, x1 = 0.3979 | 1306.99 | 7.45
293.15 K, x1 = 0.4982 | 1357.04 | 10.66
293.15 K, x1 = 0.5963 | 1399.78 | 14.65
293.15 K, x1 = 0.6992 | 1437.5 | 20.32
293.15 K, x1 = 0.7987 | 1469.95 | 25.96
293.15 K, x1 = 0.9 | 1498.66 | 32.29
293.15 K, x1 = 1 | 1523.47 | 40.36
298.15 K, x1 = 0.0991 | 1079.54 | 1.623
298.15 K, x1 = 0.1982 | 1168.6 | 2.746
298.15 K, x1 = 0.3024 | 1244.11 | 4.452
298.15 K, x1 = 0.3979 | 1301.78 | 6.552
298.15 K, x1 = 0.4982 | 1351.87 | 9.269
298.15 K, x1 = 0.5963 | 1394.64 | 12.59
298.15 K, x1 = 0.6992 | 1432.38 | 17.65
298.15 K, x1 = 0.7987 | 1464.86 | 21.91
298.15 K, x1 = 0.9 | 1493.58 | 27.04
298.15 K, x1 = 1 | 1518.39 | 33.52
303.15 K, x1 = 0.0991 | 1074.07 | 1.495
303.15 K, x1 = 0.1982 | 1163.23 | 2.498
303.15 K, x1 = 0.3024 | 1238.83 | 3.992
303.15 K, x1 = 0.3979 | 1296.56 | 5.819
303.15 K, x1 = 0.4982 | 1346.7 | 8.127
303.15 K, x1 = 0.5963 | 1389.51 | 10.93
303.15 K, x1 = 0.6992 | 1427.28 | 15.41
303.15 K, x1 = 0.7987 | 1459.77 | 18.79
303.15 K, x1 = 0.9 | 1488.51 | 22.93
303.15 K, x1 = 1 | 1513.34 | 28.35
308.15 K, x1 = 0.0991 | 1068.56 | 1.389
308.15 K, x1 = 0.1982 | 1157.86 | 2.288
308.15 K, x1 = 0.3024 | 1233.56 | 3.607
308.15 K, x1 = 0.3979 | 1291.36 | 5.196
308.15 K, x1 = 0.4982 | 1341.55 | 7.192
308.15 K, x1 = 0.5963 | 1384.4 | 9.572
308.15 K, x1 = 0.6992 | 1422.19 | 13.37
308.15 K, x1 = 0.7987 | 1454.71 | 16.59
308.15 K, x1 = 0.9 | 1483.46 | 19.65
308.15 K, x1 = 1 | 1508.3 | 24.15
313.15 K, x1 = 0.0991 | 1063.05 | 1.29
313.15 K, x1 = 0.1982 | 1152.48 | 2.102
313.15 K, x1 = 0.3024 | 1228.28 | 3.278
313.15 K, x1 = 0.3979 | 1286.15 | 4.672
313.15 K, x1 = 0.4982 | 1336.41 | 6.41
313.15 K, x1 = 0.5963 | 1379.3 | 8.445
313.15 K, x1 = 0.6992 | 1417.12 | 11.6
313.15 K, x1 = 0.7987 | 1449.66 | 14.56
313.15 K, x1 = 0.9 | 1478.42 | 17.36
313.15 K, x1 = 1 | 1503.28 | 20.76
318.15 K, x1 = 0.0991 | 1057.53 | 1.204
318.15 K, x1 = 0.1982 | 1147.11 | 1.939
318.15 K, x1 = 0.3024 | 1223.01 | 2.993
318.15 K, x1 = 0.3979 | 1280.95 | 4.223
318.15 K, x1 = 0.4982 | 1331.27 | 5.749
318.15 K, x1 = 0.5963 | 1374.2 | 7.525
318.15 K, x1 = 0.6992 | 1412.06 | 10.14
318.15 K, x1 = 0.7987 | 1444.62 | 12.72
318.15 K, x1 = 0.9 | 1473.41 | 15.35
318.15 K, x1 = 1 | 1498.27 | 17.9
323.15 K, x1 = 0.0991 | 1051.98 | 1.121
323.15 K, x1 = 0.1982 | 1141.72 | 1.794
323.15 K, x1 = 0.3024 | 1217.74 | 2.746
323.15 K, x1 = 0.3979 | 1275.76 | 3.839
323.15 K, x1 = 0.4982 | 1326.13 | 5.184
323.15 K, x1 = 0.5963 | 1369.11 | 6.739
323.15 K, x1 = 0.6992 | 1407.01 | 8.895
323.15 K, x1 = 0.7987 | 1439.6 | 11.15
323.15 K, x1 = 0.9 | 1468.41 | 13.53
323.15 K, x1 = 1 | 1493.28 | 15.93
328.15 K, x1 = 0.0991 | 1046.42 | 1.049
328.15 K, x1 = 0.1982 | 1136.32 | 1.667
328.15 K, x1 = 0.3024 | 1212.46 | 2.528
328.15 K, x1 = 0.3979 | 1270.58 | 3.509
328.15 K, x1 = 0.4982 | 1321.01 | 4.704
328.15 K, x1 = 0.5963 | 1364.03 | 6.075
328.15 K, x1 = 0.6992 | 1401.98 | 7.875
328.15 K, x1 = 0.7987 | 1434.59 | 9.813
328.15 K, x1 = 0.9 | 1463.42 | 11.93
328.15 K, x1 = 1 | 1488.31 | 14.26
